{"source": "patent US20210254056A1", "about": "“IDENTIFICATION AND TARGETED MODULATION OF GENE SIGNALING NETWORKS” (CAMP4 THERAPEUTICS CORPORATION, priority 2017, published 2021)", "tested_on": "hepatocytes", "assay": "RNA-seq of hepatocytes treated with Phase III failure compounds", "description": "RNA-seq was performed to determine the effects of the compounds on hepatocytes.\nSignificance was determined by the criteria of FPKM≥0.5, a log 2(fold-change)≥1, and a […].", "data": [{"smiles": "Cn1cc(C2=C(c3cn(C4CCN(Cc5ccccn5)CC4)c4ccccc34)C(=O)NC2=O)c2ccccc21", "note": "[Enzastaurin]", "values": [{"measurement": "RNA-seq results, CYP2B6 expression", "value": 0.42}, {"measurement": "RNA-seq results, CYP2C19 expression", "value": 0.47}, {"measurement": "RNA-seq results, CYP2D6 expression", "value": "−0.28"}, {"measurement": "RNA-seq results, CYP3A4 expression", "value": 0.22}, {"measurement": "RNA-seq results, CYP7B1 expression", "value": 0.06}, {"measurement": "RNA-seq results, CYP39A1 expression", "value": "−1.39"}, {"measurement": "RNA-seq results: CYP2B6 expression", "value": 0.34}, {"measurement": "RNA-seq results: CYP2C19 expression", "value": 1.62}, {"measurement": "RNA-seq results: CYP2D6 expression", "value": "−0.62"}, {"measurement": "RNA-seq results: CYP3A4 expression", "value": 0.01}, {"measurement": "RNA-seq results: CYP7B1 expression", "value": 0.26}, {"measurement": "RNA-seq results: CYP39A1 expression", "value": "−0.08"}, {"measurement": "significant modulation of expression of disease genes", "setting": "RNA-seq, q≤0.05, hepatocytes, genes in the value or listed in the block", "value": "significantly (q≤0.05) modulate expression"}, {"measurement": "effect on disease gene expression", "setting": "RNA-seq, hepatocytes", "value": "effect on expression of too many disease genes"}, {"measurement": "RNA-seq results: A1BG expression", "setting": "gene A1BG, hepatocytes", "value": 0.13}, {"measurement": "RNA-seq results: AGTR1 expression", "setting": "gene AGTR1, hepatocytes", "value": "−0.76"}, {"measurement": "RNA-seq results: AGXT expression", "setting": "gene AGXT, hepatocytes", "value": "−0.27"}, {"measurement": "RNA-seq results: AHI1 expression", "setting": "gene AHI1, hepatocytes", "value": 0.25}, {"measurement": "RNA-seq results: AMPD3 expression", "setting": "gene AMPD3, hepatocytes", "value": "−0.35"}, {"measurement": "RNA-seq results: AMT expression", "setting": "gene AMT, hepatocytes", "value": "−0.42"}, {"measurement": "RNA-seq results: ANGPTL3 expression", "setting": "gene ANGPTL3, hepatocytes", "value": "−2.31"}, {"measurement": "RNA-seq results: ANKS4B expression", "setting": "gene ANKS4B, hepatocytes", "value": "−0.71"}, {"measurement": "RNA-seq results: ANKS6 expression", "setting": "gene ANKS6, hepatocytes", "value": 0.10}, {"measurement": "RNA-seq results: ANPEP expression", "setting": "gene ANPEP, hepatocytes", "value": "−0.52"}, {"measurement": "RNA-seq results: AOC2 expression", "setting": "gene AOC2, hepatocytes", "value": 0.11}, {"measurement": "RNA-seq results: APOA2 expression", "setting": "gene APOA2, hepatocytes", "value": "−0.48"}, {"measurement": "RNA-seq results: APOA5 expression", "setting": "gene APOA5, hepatocytes", "value": "−0.04"}, {"measurement": "RNA-seq results: APOB expression", "setting": "gene APOB, hepatocytes", "value": "−0.19"}, {"measurement": "RNA-seq results: COG5 expression", "setting": "gene COG5, hepatocytes", "value": 0.35}, {"measurement": "RNA-seq results: COG6 expression", "setting": "gene COG6, hepatocytes", "value": 0.23}, {"measurement": "RNA-seq results: COL1A1 expression", "setting": "gene COL1A1, hepatocytes", "value": 0.34}, {"measurement": "RNA-seq results: COX6A1 expression", "setting": "gene COX6A1, hepatocytes", "value": "−1.30"}, {"measurement": "RNA-seq results: CP expression", "setting": "gene CP, hepatocytes", "value": 0.80}, {"measurement": "RNA-seq results: CPS1 expression", "setting": "gene CPS1, hepatocytes", "value": 0.69}, {"measurement": "RNA-seq results: CPT1A expression", "setting": "gene CPT1A, hepatocytes", "value": "−0.10"}, {"measurement": "RNA-seq results: CPT2 expression", "setting": "gene CPT2, hepatocytes", "value": "−0.15"}, {"measurement": "RNA-seq results: CROT expression", "setting": "gene CROT, hepatocytes", "value": "−0.21"}, {"measurement": "RNA-seq results: CSPP1 expression", "setting": "gene CSPP1, hepatocytes", "value": "−0.22"}, {"measurement": "RNA-seq results: CTC1 expression", "setting": "gene CTC1, hepatocytes", "value": 0.46}, {"measurement": "RNA-seq results: CTDSP2 expression", "setting": "gene CTDSP2, hepatocytes", "value": 0.44}, {"measurement": "RNA-seq results: CTH expression", "setting": "gene CTH, hepatocytes", "value": "−0.17"}, {"measurement": "RNA-seq results: CTNS expression", "setting": "gene CTNS, hepatocytes", "value": 0.16}, {"measurement": "RNA-seq results: CTSF expression", "setting": "gene CTSF, hepatocytes", "value": "−0.63"}, {"measurement": "RNA-seq results: CTSK expression", "setting": "gene CTSK, hepatocytes", "value": 0.47}, {"measurement": "RNA-seq results: CYB5A expression", "setting": "gene CYB5A, hepatocytes", "value": "−0.56"}, {"measurement": "RNA-seq results: CYB5R3 expression", "setting": "gene CYB5R3, hepatocytes", "value": 0.02}, {"measurement": "RNA-seq results: CYP27A1 expression", "setting": "gene CYP27A1, hepatocytes", "value": "−0.43"}, {"measurement": "RNA-seq results: DAO expression", "setting": "gene DAO, hepatocytes", "value": "−0.01"}, {"measurement": "RNA-seq results: DBT expression", "setting": "gene DBT, hepatocytes", "value": 0.28}, {"measurement": "RNA-seq results: DCDC2 expression", "setting": "gene DCDC2, hepatocytes", "value": 0.20}, {"measurement": "RNA-seq results: DCXR expression", "setting": "gene DCXR, hepatocytes", "value": "−1.16"}, {"measurement": "RNA-seq results: FABP1 expression", "setting": "gene FABP1, hepatocytes", "value": "−0.93"}, {"measurement": "RNA-seq results: FADD expression", "setting": "gene FADD, hepatocytes", "value": "−0.53"}, {"measurement": "RNA-seq results: FAM111A expression", "setting": "gene FAM111A, hepatocytes", "value": 0.49}, {"measurement": "RNA-seq results: FAM111B expression", "setting": "gene FAM111B, hepatocytes", "value": 0.47}, {"measurement": "RNA-seq results: FAN1 expression", "setting": "gene FAN1, hepatocytes", "value": 0.43}, {"measurement": "RNA-seq results: FARS2 expression", "setting": "gene FARS2, hepatocytes", "value": "−0.55"}, {"measurement": "RNA-seq results: FASLG expression", "setting": "gene FASLG, hepatocytes", "value": 0.35}, {"measurement": "RNA-seq results: FGA expression", "setting": "gene FGA, hepatocytes", "value": "−0.10"}, {"measurement": "RNA-seq results: FGD1 expression", "setting": "gene FGD1, hepatocytes", "value": 0.29}, {"measurement": "RNA-seq results: FGFR2 expression", "setting": "gene FGFR2, hepatocytes", "value": 0.75}, {"measurement": "RNA-seq results: FIG4 expression", "setting": "gene FIG4, hepatocytes", "value": 0.08}, {"measurement": "RNA-seq results: FIS1 expression", "setting": "gene FIS1, hepatocytes", "value": "−1.07"}, {"measurement": "RNA-seq results: FTCD expression", "setting": "gene FTCD, hepatocytes", "value": "−0.35"}, {"measurement": "RNA-seq results: FTH1 expression", "setting": "gene FTH1, hepatocytes", "value": "−0.84"}, {"measurement": "RNA-seq results: FUCA1 expression", "setting": "gene FUCA1, hepatocytes", "value": "−0.37"}, {"measurement": "RNA-seq results: FXN expression", "setting": "gene FXN, hepatocytes", "value": "−0.10"}, {"measurement": "RNA-seq results: G6PC3 expression", "setting": "gene G6PC3, hepatocytes", "value": "−0.60"}, {"measurement": "RNA-seq results: G6PC expression", "setting": "gene G6PC, hepatocytes", "value": 0.69}, {"measurement": "RNA-seq results: G6PD expression", "setting": "gene G6PD, hepatocytes", "value": "−0.23"}, {"measurement": "RNA-seq results: GALK1 expression", "setting": "gene GALK1, hepatocytes", "value": "−0.94"}, {"measurement": "RNA-seq results: GALK2 expression", "setting": "gene GALK2, hepatocytes", "value": "−0.51"}, {"measurement": "RNA-seq results: GATA6 expression", "setting": "gene GATA6, hepatocytes", "value": "−0.26"}, {"measurement": "RNA-seq results: GATM expression", "setting": "gene GATM, hepatocytes", "value": 0.12}, {"measurement": "RNA-seq results: GBA expression", "setting": "gene GBA, hepatocytes", "value": 0.04}, {"measurement": "RNA-seq results: GBE1 expression", "setting": "gene GBE1, hepatocytes", "value": "−0.07"}, {"measurement": "RNA-seq results: GCH1 expression", "setting": "gene GCH1, hepatocytes", "value": "−0.12"}, {"measurement": "RNA-seq results: GCKR expression", "setting": "gene GCKR, hepatocytes", "value": 0.17}, {"measurement": "RNA-seq results: GCLC expression", "setting": "gene GCLC, hepatocytes", "value": 0.11}, {"measurement": "RNA-seq results: GGCX expression", "setting": "gene GGCX, hepatocytes", "value": 0.17}, {"measurement": "RNA-seq results: GHR expression", "setting": "gene GHR, hepatocytes", "value": 0.73}, {"measurement": "RNA-seq results: GJB2 expression", "setting": "gene GJB2, hepatocytes", "value": "−0.07"}, {"measurement": "RNA-seq results: GOSH expression", "setting": "gene GOSH, hepatocytes", "value": "−1.35"}, {"measurement": "RNA-seq results: RRM2B", "setting": "gene RRM2B, hepatocytes", "value": "−0.08"}, {"measurement": "RNA-seq results: RSAD1", "setting": "gene RSAD1, hepatocytes", "value": 0.26}, {"measurement": "RNA-seq results: SAMHD1", "setting": "gene SAMHD1, hepatocytes", "value": "−0.34"}, {"measurement": "RNA-seq results: SC5D", "setting": "gene SC5D, hepatocytes", "value": 0.23}, {"measurement": "RNA-seq results: SCARB1", "setting": "gene SCARB1, hepatocytes", "value": "−0.02"}, {"measurement": "RNA-seq results: SCN9A", "setting": "gene SCN9A, hepatocytes", "value": "−1.60"}, {"measurement": "RNA-seq results: SDCCAG8", "setting": "gene SDCCAG8, hepatocytes", "value": 0.08}, {"measurement": "RNA-seq results: SEPN1", "setting": "gene SEPN1, hepatocytes", "value": "−0.51"}, {"measurement": "RNA-seq results: SERAC1", "setting": "gene SERAC1, hepatocytes", "value": "−0.28"}, {"measurement": "RNA-seq results: SERPINA1", "setting": "gene SERPINA1, hepatocytes", "value": 0.21}, {"measurement": "RNA-seq results: SERPING1", "setting": "gene SERPING1, hepatocytes", "value": 0.06}, {"measurement": "RNA-seq results: SERPINI1", "setting": "gene SERPINI1, hepatocytes", "value": "−0.50"}, {"measurement": "RNA-seq results: SETBP1", "setting": "gene SETBP1, hepatocytes", "value": 0.08}, {"measurement": "RNA-seq results: SFXN4", "setting": "gene SFXN4, hepatocytes", "value": 0.11}, {"measurement": "RNA-seq results: SLC10A1", "setting": "gene SLC10A1, hepatocytes", "value": "−0.60"}, {"measurement": "RNA-seq results: SLC10A3", "setting": "gene SLC10A3, hepatocytes", "value": 0.28}, {"measurement": "RNA-seq results: SLC10A5", "setting": "gene SLC10A5, hepatocytes", "value": "−0.77"}, {"measurement": "RNA-seq results: SLC10A7", "setting": "gene SLC10A7, hepatocytes", "value": "−0.46"}, {"measurement": "RNA-seq results: SLC11A2", "setting": "gene SLC11A2, hepatocytes", "value": 0.16}, {"measurement": "RNA-seq results: SLC19A2", "setting": "gene SLC19A2, hepatocytes", "value": 0.28}, {"measurement": "RNA-seq results: SLC19A3", "setting": "gene SLC19A3, hepatocytes", "value": "−0.67"}, {"measurement": "RNA-seq results: SLC22A1", "setting": "gene SLC22A1, hepatocytes", "value": "−0.34"}, {"measurement": "RNA-seq results: SLC22A5", "setting": "gene SLC22A5, hepatocytes", "value": 0.26}, {"measurement": "RNA-seq results: SLC25A1", "setting": "gene SLC25A1, hepatocytes", "value": "−0.20"}, {"measurement": "RNA-seq results: SLC25A10", "setting": "gene SLC25A10, hepatocytes", "value": "−0.01"}, {"measurement": "RNA-seq results: SLC25A12", "setting": "gene SLC25A12, hepatocytes", "value": 0.10}, {"measurement": "RNA-seq results: SLC25A13", "setting": "gene SLC25A13, hepatocytes", "value": 0.11}, {"measurement": "RNA-seq results: SLC25A15", "setting": "gene SLC25A15, hepatocytes", "value": "−0.31"}, {"measurement": "RNA-seq results: SLC25A19", "setting": "gene SLC25A19, hepatocytes", "value": "−0.01"}, {"measurement": "RNA-seq results: SLC25A20", "setting": "gene SLC25A20, hepatocytes", "value": "−0.96"}, {"measurement": "RNA-seq results: SLC25A32", "setting": "gene SLC25A32, hepatocytes", "value": 0.18}]}]}
